Measurements published in patent publication US6608032B1, “Medicinal compositions” (Takara Shuzo Co., Ltd., priority 1999, dated 2003).

Legend:
celiac macrophages = assay: TPA-induced IL-6 production in celiac macrophages; type: cell-based, mouse; conditions: 5 μl of 20, 10 or 5 mM solution per 500 μl; 14 hours; concentration dependent; FIG. 16
Experimental: 4 ml of RPMI 1640 medium (Bio Whittaker, 12-702F) containing 10% fetal calf serum was intraperitoneally injected into ddy mouse (Japan SLC, female, 7 weeks old) The medium was removed after extensive massage to obtain celiac cells. The celiac cells were suspended in RPMI 1640 medium containing 10% fetal calf serum at a concentration of 10^6 cells/ml. 500 μl of the suspension was added to each well of a 48-well microtiter plate and the plate was incubated at 37° C. for 2 hours in the presence of 5% CO2. Adhesive cells obtained by removing the culture supernatant were used as celiac macrophaaes. 500 μl of fresh Dulbecco's modified Eagle's medium (Bio Whittaker, 12-917F) without Phenol Red containing 10% fetal calf serum and 2 mM L-glutamine was added to each well. 5 μl of 20, 10 or 5 mM aqueous solution of agarobiose obtained in Referential Example 1 and 5 μl of 10 μg/ml aqueous solution of 12-O-tetradecanoylphorbol 13-acetate (TPA, Gibco, 13139-019) were added to the well. The plate was incubated for additional 14 hours, and the culture supernatant was then collected. The content of interleukin 6 (IL-6) in the culture supernatant was measured using enzyme immuno sandwich assay (ELISA; Matched antibody Pair Sample Pak-mouse IL6, Endogen). As a control, a group to which the agarobiose aqueous solution or the TPA aqueous solution was not added was provided. […]

[1] = system: enzymes involved in the synthesis of prostaglandin E2 from arachidonic acid; assay: Prostaglandin E2 generation from arachidonic acid, sample added directly to crude enzyme fraction; type: biochemical; conditions: 1 μL of 100 mM agarobiose, 100 mM agarohexaose, 10 mM DGE or 13 mM nimesulide added to 100 μL crude enzyme fraction; FIG. 15
Experimental: 2.5 μL of 200 mM aqueous solution of glutathione, 2.5 μL of a suspension containing L-adrenaline at a concentration of 200 mM in water, and 1 μL of 100 mM aqueous solution of agarobiose, 100 mM aqueous solution of agarohexaose or 10 mM aqueous solution of DGE as a sample were added to 100 μL of the control sample from the crude enzyme fraction prepared in Example 15. 1 μL of water was added as a negative control. 1 μL of 13 mM nimesulide (Cayman, 70640) solution was added as a positive control. 1 μL of 3 mM arachidonic acid solution was then added to start the reaction. The mixture was reacted at 37° C. for 5 minutes. The reaction was stopped by heating at 100° C. for 2 minutes. The content of prostaglandin E2 in the reaction mixture was measured using Prostaglandin E2 ELISA Kit.

cyclooxygenase 2 mRNA = assay: LPS-induced cyclooxygenase 2 mRNA synthesis in RAW264.7 cells (RT-PCR); type: cell-based; conditions: 50 μl of 10 mM solution per 5 ml, added 0 or 6 hours before LPS
Experimental: (2) RAW264.7 cells (ATCC TIB 71) were suspended in Dulbecco's modified Eagle's medium (Bio Whittaker, 12-604F) containing 10% fetal calf serum (Gibco) at a concentration of 3×10^5 cells/ml. 5 ml of the suspension was added to each well of a 6-well microtiter plate and the plate was incubated at 37° C. overnight in the presence of 5% CO2. 50 μl of a solution containing agarobiose or agarohexaose at a concentration of 10 mM in water was added to the well. The plate was incubated for 0 or 6 hours. 50 μl of a solution containing lipopolysaccharide (LPS, Sigma, L-2012) at a concentration of 100 μg/ml in water was added to the well. The plate was incubated for additional 5 hours. The culture supernatant was removed, and 1 ml of a solution of Catrimox-14 (a product of Iowa Biotechnology sold by Takara Shuzo, WA002) was added to the well. After pipetting, the solution was collected. An RNA was prepared according to the attached protocol. The RNA prepared as described above was subjected to RT-PCR using RNA-PCR Kit (AMV) Ver. 2.1 (Takara Shuzo, R019A). A reverse transcription reaction was conducted using a random primer (N6) (Takara Shuzo, 3801) at 30° C. for 10 minutes, at 42° C. for 30 minutes and 99° C. for 5 minutes. […]

α-glucosidase [2] = assay: α-glucosidase inhibition, crude enzyme preparation from rat small intestine mucous membrane; type: biochemical
Experimental: (§1) (2) A crude enzyme preparation obtained from rat small intestine mucous membrane prepared according to the method as described in Arne Dahlqvist, Anal. Biochem., 7:18-25 (1964) was used to measure the activity of inhibiting α-glucosidase of agarotetraose or agarohexaose prepared in Referential Example 1 in vitro as follows.
(§2) For the enzymatic reaction, 80 μl of a solution of sucrose, maltose, treharose or soluble starch as a substrate in 10 mM phosphate buffer (pH 7.0) at a final concentration of 100 mM (0.5% in case of soluble starch) was added to 10 μl of a test sample solution appropriately diluted with the same buffer. 10 μl of the crude enzyme solution prepared from rat small intestine was added thereto. The mixture was reacted at 37° C. for 20 minutes. The enzymatic activity was determined as follows as the amount of glucose generated in the reaction mixture: 3 ml of a reagent for glucose measurement (Wako Pure Chemical Industries) was added to the reaction mixture, reaction was carried out at 37° C. for 5 minutes, and then the absorbance at 505 nm was measured. The inhibitory activity on the digestion of each substrate was expressed as a remaining activity (%) against the control, which was calculated based on the activity measured as described above for each of four different concentrations. The remaining activities (%) on the respective substrates in the presence of agarotetraose are shown in Table 2, whereas the remaining activities (%) on the respective substrates in the presence of agarohexaose are shown in Table 3.

α-glucosidase [3] = biological target: α-glucosidase (Rattus norvegicus, UniProt P23739); assay: as above; type: biochemical
Experimental: as §1, §2

[4] = substrate Soluble starch, 0.2 mM
[5] = substrate Soluble starch, 0.5 mM
[6] = substrate Soluble starch, 1.0 mM
[7] = substrate Soluble starch, 2.0 mM

Chain of α-glucosidase (Rattus norvegicus, UniProt P23739) (P23739 whole entry): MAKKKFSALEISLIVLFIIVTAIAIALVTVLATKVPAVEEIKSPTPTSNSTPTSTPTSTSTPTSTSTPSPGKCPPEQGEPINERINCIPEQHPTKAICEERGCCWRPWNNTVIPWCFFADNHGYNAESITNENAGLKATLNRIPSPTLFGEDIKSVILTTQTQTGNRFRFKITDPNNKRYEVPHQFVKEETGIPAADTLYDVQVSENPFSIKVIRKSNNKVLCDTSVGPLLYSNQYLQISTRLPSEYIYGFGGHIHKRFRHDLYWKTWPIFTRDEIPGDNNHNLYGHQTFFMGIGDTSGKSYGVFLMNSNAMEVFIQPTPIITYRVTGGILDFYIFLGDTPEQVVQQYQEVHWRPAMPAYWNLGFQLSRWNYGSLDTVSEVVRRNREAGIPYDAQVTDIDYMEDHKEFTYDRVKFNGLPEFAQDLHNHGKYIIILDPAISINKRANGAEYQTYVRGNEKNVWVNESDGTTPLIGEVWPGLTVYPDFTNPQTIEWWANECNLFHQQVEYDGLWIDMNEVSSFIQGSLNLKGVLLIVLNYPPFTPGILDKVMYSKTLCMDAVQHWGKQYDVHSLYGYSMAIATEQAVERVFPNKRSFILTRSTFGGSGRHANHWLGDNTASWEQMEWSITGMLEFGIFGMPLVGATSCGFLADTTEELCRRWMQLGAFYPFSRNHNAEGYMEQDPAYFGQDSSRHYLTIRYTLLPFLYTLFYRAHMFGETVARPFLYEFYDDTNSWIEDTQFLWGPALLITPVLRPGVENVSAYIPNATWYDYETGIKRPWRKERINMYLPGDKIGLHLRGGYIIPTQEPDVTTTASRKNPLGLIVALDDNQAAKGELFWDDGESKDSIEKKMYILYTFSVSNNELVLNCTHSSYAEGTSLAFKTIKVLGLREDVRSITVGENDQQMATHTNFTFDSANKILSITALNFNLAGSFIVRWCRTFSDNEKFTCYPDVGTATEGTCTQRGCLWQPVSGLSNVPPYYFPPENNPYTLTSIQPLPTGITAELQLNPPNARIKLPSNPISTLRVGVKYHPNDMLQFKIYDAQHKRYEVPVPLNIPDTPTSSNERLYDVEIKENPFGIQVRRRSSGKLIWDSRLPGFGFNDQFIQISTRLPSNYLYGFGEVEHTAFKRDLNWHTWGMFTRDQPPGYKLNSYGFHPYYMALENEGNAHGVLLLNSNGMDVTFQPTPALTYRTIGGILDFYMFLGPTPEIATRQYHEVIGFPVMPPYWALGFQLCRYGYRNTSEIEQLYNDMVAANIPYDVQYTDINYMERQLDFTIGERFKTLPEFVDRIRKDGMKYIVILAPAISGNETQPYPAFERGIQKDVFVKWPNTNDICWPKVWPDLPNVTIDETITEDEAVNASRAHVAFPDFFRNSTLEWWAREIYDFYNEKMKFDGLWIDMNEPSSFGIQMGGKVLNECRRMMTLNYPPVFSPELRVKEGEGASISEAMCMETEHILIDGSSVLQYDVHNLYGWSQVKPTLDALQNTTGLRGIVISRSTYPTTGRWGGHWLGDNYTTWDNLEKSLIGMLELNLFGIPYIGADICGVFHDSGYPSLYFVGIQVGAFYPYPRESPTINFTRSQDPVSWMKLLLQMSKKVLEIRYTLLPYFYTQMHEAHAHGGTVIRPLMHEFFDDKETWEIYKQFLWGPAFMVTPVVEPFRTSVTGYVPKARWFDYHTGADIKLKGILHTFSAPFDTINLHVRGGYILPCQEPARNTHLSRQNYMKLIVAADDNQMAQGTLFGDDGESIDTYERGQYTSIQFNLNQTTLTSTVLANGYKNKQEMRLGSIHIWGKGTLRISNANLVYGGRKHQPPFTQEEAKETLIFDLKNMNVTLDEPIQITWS

Row | Structure (SMILES) | TPA-induced IL-6 production (celiac macrophages) | production of prostaglandin E2 from arachidonic acid [1] | increase in the cyclooxygenase 2 mRNA synthesis induced by LPS (cyclooxygenase 2 mRNA) | Remaining activity (%) (α-glucosidase [2]; substrate Maltose, 0.2 mM) | Remaining activity (%) (α-glucosidase [2]; substrate Maltose, 0.5 mM) | Remaining activity (%) (α-glucosidase [2]; substrate Maltose, 1.0 mM) | Remaining activity (%) (α-glucosidase [2]; substrate Maltose, 2.0 mM) | Remaining activity (%) (α-glucosidase [2]; [4]) | Remaining activity (%) (α-glucosidase [2]; [5]) | Remaining activity (%) (α-glucosidase [2]; [6]) | Remaining activity (%) (α-glucosidase [2]; [7]) | Remaining activity (%) (α-glucosidase [2]; substrate Trehalose, 0.2 mM) | Remaining activity (%) (α-glucosidase [2]; substrate Trehalose, 0.5 mM) | Remaining activity (%) (α-glucosidase [2]; substrate Trehalose, 1.0 mM) | Remaining activity (%) (α-glucosidase [2]; substrate Trehalose, 2.0 mM) | remaining activity at 200 µM (α-glucosidase [3]) [%] | remaining activity at 500 µM (α-glucosidase [3]) [%] | remaining activity at 1000 µM (α-glucosidase [3]) [%] | remaining activity at 2000 µM (α-glucosidase [3]) [%]
1 | OC[C@H]1O[C@@H](O[C@H]2[C@H]3OC[C@@H]2OC(O)[C@H]3O)[C@H](O)[C@@H](O)[C@H]1O (mixture of isomers) [Agarobiose, agarobiose] | suppression of TPA-induced IL-6 production | not suppressed | not suppressed | – | – | – | – | – | – | – | – | – | – | – | – | – | – | – | –
2 | OCC1OC(OC2C3COC2C(O)C(OC2C(O)C(CO)OC(OC4C5COC4C(O)C(OC4C(O)C(CO)OC(OC6C7COC6C(O)C(O)O7)C4O)O5)C2O)O3)C(O)C(O)C1O (stereo not shown) [Agarohexaose, agarohexaose] | – | not suppressed | not suppressed | 98 | 100 | 91 | 92 | 100 | 97 | 96 | 97 | 100 | 100 | 100 | 93 | 92 | 85 | 81 | 70
3 | OCC1OC(OC2C3COC2C(O)C(OC2C(O)C(CO)OC(OC4C5COC4C(O)C(O)O5)C2O)O3)C(O)C(O)C1O (stereo not shown) [Agarotetraose, agarotetraose] | – | – | – | 97 | 95 | 100 | 98 | 100 | 96 | 97 | 91 | 100 | 100 | 100 | 93 | 92 | 85 | 83 | 72
